compound: C1CC(C2=C(C1)C3=C(N2)C=CC(=C3)Cl)C(=O)N [Selisistat] + O=C(c1cc(Cc2n[nH]c(=O)c3ccccc23)ccc1F)N1CCN(C(=O)C2CC2)CC1 [Olaparib] (partner 8 µM); experiment: relative viability (nuclei count vs DMSO), 5 days (fraction); higher = more cells survive; conditions: first compound 0.4 µM
Method in brief: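 Relative viability is defined as nuclei in treated wells over nuclei in vehicle wells. Duplicate plates were run and medians reported. Lung cancer cell lines in 1536-well plates were dosed by pin tool one day after seeding, with one drug or with a fixed anchor-drug dose plus five library-drug doses (not always all listed) in √10 steps, and nuclei were counted after 5 days.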

Row | Cell Line | relative viability
1 | SW 900 | 0.905
2 | NCI-H1648 | 0.878
3 | NCI-H2009 | 0.763
4 | NCI-H661 | 0.739
5 | SK-LU-1 | 0.567
6 | NCI-H1299 | 1.04
7 | CAL-12T | 0.765
8 | NCI-H2228 | 0.637
9 | NCI-H2023 | 0.555

same assay, conditions: first compound 1.265 µM

Row | Cell Line | relative viability
10 | NCI-H522 | 0.766
11 | NCI-H727 | 0.635
12 | NCI-H1650 | 0.863
13 | EBC-1 | 0.732
14 | NCI-H1703 | 0.425
15 | NCI-H1993 | 1.07
16 | SW 1573 | 0.462
17 | NCI-H838 | 0.782
18 | LCLC-103H | 0.798
19 | NCI-H520 | 0.317
20 | NCI-H2126 | 0.922
21 | EMC-BAC-2 | 0.504
22 | NCI-H2085 | 0.771
23 | Calu-6 | 0.572
24 | HCC-366 | 0.344
25 | NCI-H1666 | 0.763
26 | NCI-H596 | 0.715
27 | LK-2 | 0.652
28 | NCI-H2087 | 0.684
29 | NCI-H2342 | 0.397

Row | Cell Line | relative viability
30 | SK-MES-1 | 0.717
31 | H3255 | 0.538
32 | COR-L23 | 0.331
33 | COR-L 105 | 0.67
34 | IA-LM | 0.897
35 | LOU-NH91 | 0.867
36 | ChaGo-K-1 | 0.409
37 | NCI-H2170 | 0.581
38 | NCI-H2405 | 0.909
39 | A549 | 0.299
40 | SW 900 | 0.914
41 | NCI-H1648 | 0.792
42 | NCI-H2009 | 0.683
43 | NCI-H661 | 0.713
44 | SK-LU-1 | 0.408
45 | NCI-H1299 | 0.972
46 | CAL-12T | 0.675
47 | NCI-H2228 | 0.656
48 | NCI-H2023 | 0.443

same assay, conditions: first compound 4 µM

Row | Cell Line | relative viability
49 | NCI-H522 | 0.634
50 | NCI-H727 | 0.631
51 | NCI-H1650 | 0.86
52 | EBC-1 | 0.711
53 | NCI-H1703 | 0.362
54 | SW 1573 | 0.505
55 | NCI-H838 | 0.842
56 | LCLC-103H | 0.78
57 | NCI-H520 | 0.364
58 | NCI-H2126 | 0.904
59 | EMC-BAC-2 | 0.676
60 | NCI-H2085 | 0.766
61 | Calu-6 | 0.634
62 | HCC-366 | 0.359
63 | NCI-H1666 | 0.745
64 | NCI-H596 | 0.643
65 | LK-2 | 0.675
66 | NCI-H2342 | 0.468

Row | Cell Line | relative viability
67 | SK-MES-1 | 0.823
68 | H3255 | 0.571
69 | COR-L23 | 0.406
70 | COR-L 105 | 0.815
71 | IA-LM | 0.849
72 | LOU-NH91 | 0.914
73 | ChaGo-K-1 | 0.438
74 | NCI-H2170 | 0.647
75 | A549 | 0.267
76 | SW 900 | 0.941
77 | NCI-H2009 | 0.838
78 | NCI-H661 | 0.781
79 | SK-LU-1 | 0.404
80 | NCI-H1299 | 1
81 | CAL-12T | 0.689
82 | NCI-H2228 | 0.523
83 | NCI-H2023 | 0.523

same assay, conditions: first compound 12.65 µM

Row | Cell Line | relative viability
84 | NCI-H522 | 0.553
85 | NCI-H727 | 0.655
86 | NCI-H1650 | 0.852
87 | EBC-1 | 0.728
88 | NCI-H1703 | 0.42
89 | NCI-H1993 | 1.15
90 | SW 1573 | 0.639
91 | NCI-H838 | 0.75
92 | LCLC-103H | 0.724
93 | NCI-H520 | 0.344
94 | NCI-H2126 | 0.921
95 | EMC-BAC-2 | 0.371
96 | NCI-H2085 | 0.824
97 | Calu-6 | 0.552
98 | HCC-366 | 0.364
99 | NCI-H1666 | 0.811
100 | NCI-H596 | 0.619
101 | LK-2 | 0.588
102 | NCI-H2087 | 0.573
103 | NCI-H2342 | 0.475

Row | Cell Line | relative viability
104 | SK-MES-1 | 0.736
105 | H3255 | 0.549
106 | COR-L23 | 0.367
107 | COR-L 105 | 0.659
108 | IA-LM | 0.802
109 | LOU-NH91 | 0.895
110 | ChaGo-K-1 | 0.351
111 | NCI-H2170 | 0.585
112 | NCI-H2405 | 0.769
113 | A549 | 0.324
114 | SW 900 | 0.833
115 | NCI-H1648 | 0.918
116 | NCI-H2009 | 0.743
117 | NCI-H661 | 0.667
118 | SK-LU-1 | 0.495
119 | NCI-H1299 | 1.03
120 | CAL-12T | 0.782
121 | NCI-H2228 | 0.741
122 | NCI-H2023 | 0.413

same assay, conditions: first compound 40 µM

Row | Cell Line | relative viability
123 | NCI-H522 | 0.519
124 | NCI-H727 | 0.687
125 | NCI-H1650 | 0.702
126 | EBC-1 | 0.66
127 | NCI-H1703 | 0.433
128 | NCI-H1993 | 1.03
129 | SW 1573 | 0.505
130 | NCI-H838 | 0.733
131 | LCLC-103H | 0.833
132 | NCI-H520 | 0.319
133 | NCI-H2126 | 0.934
134 | EMC-BAC-2 | 0.405
135 | NCI-H2085 | 0.855
136 | Calu-6 | 0.617
137 | HCC-366 | 0.387
138 | NCI-H1666 | 0.631
139 | NCI-H596 | 0.609
140 | LK-2 | 0.782

Row | Cell Line | relative viability
141 | NCI-H2087 | 0.553
142 | NCI-H2342 | 0.461
143 | SK-MES-1 | 0.809
144 | H3255 | 0.539
145 | COR-L23 | 0.335
146 | COR-L 105 | 0.576
147 | IA-LM | 0.806
148 | LOU-NH91 | 0.899
149 | ChaGo-K-1 | 0.388
150 | NCI-H2170 | 0.664
151 | NCI-H2405 | 0.882
152 | A549 | 0.314
153 | SW 900 | 0.862
154 | NCI-H1648 | 1.2
155 | NCI-H2009 | 0.672
156 | NCI-H661 | 0.577
157 | SK-LU-1 | 0.529
158 | NCI-H1299 | 1.02

Source: the supplement of paper PMC10307832
